Results on 14 compounds are retold here after US5877202A, “Indole derivatives useful to treat estrogen-related neoplasms and disorders” (priority 1996, dated 1999).

Read-outs that look alike come from different tables or passages of the source.

In one assay the target is T1, estrogen receptors (Homo sapiens, UniProt P03372).
T1 construct: estrogen receptor extracted from MCF-7 human breast tumor cells; endogenous in cells; host or cells: MCF-7 human breast cancer cells (nuclear extract, cytosol or whole cell extract)
T1 sequence (P03372 1-595): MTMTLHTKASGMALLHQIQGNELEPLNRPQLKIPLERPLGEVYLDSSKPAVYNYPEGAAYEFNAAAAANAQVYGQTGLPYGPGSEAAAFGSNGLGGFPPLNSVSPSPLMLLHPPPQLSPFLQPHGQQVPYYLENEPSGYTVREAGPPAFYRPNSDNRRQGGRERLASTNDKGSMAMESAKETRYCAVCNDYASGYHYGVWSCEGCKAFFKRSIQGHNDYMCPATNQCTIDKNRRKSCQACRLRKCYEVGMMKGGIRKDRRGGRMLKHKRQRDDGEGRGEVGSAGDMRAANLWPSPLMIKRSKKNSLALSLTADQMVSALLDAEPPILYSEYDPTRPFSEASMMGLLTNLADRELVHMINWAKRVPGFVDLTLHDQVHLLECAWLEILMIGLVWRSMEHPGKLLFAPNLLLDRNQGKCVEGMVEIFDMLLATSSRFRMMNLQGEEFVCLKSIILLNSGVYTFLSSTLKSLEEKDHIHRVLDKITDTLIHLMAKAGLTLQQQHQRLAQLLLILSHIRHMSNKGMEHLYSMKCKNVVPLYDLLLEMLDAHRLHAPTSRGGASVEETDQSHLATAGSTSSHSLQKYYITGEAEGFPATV
In words: Quantification of estrogen receptors in nuclear and whole cell extracts (ER-EIA monoclonal kit), Table 1. It counts as cell-based, human (MCF-7 human breast cancer cells). The method, then:
(§1) Monolayers of MCF-7 human breast cancer cells are rinsed once with HBSS and scraped off culture dishes into 15 ml conical tubes with 5 ml HBSS. The cells are sedimented by centrifugation at 250×g for five minutes, suspended in 1 ml HBSS and sedimented by centrifugation at 2000 rpm in a tabletop centrifuge for five minutes in a 1.5 ml microfuge tube. Two PCV of a solution of a lysis buffer (25 mM HEPES, pH 7.8, 50 mM KCl, 0.5% Nonidet P 40, 2 mM dithiothreitol, 0.2 mM phenylmethylsulfonyl fluoride, 0.05 mg/ml leupeptin, 0.05 mg/ml aprotinin, 0.0025 mg/ml pepstatin, 0.005 mg/ml antipain) are added and cells are kept on ice for 15 minutes. Lysed cells are centrifuged for 3 minutes at 10,000×g, supernatant decanted, and kept as the cytosol fraction. Pellets are suspended in two PCV of extraction buffer (25 mM HEPES, pH 7.8, 500 mM KCl, 10% glycerol, 2 mM dithiothreitol and the above protease inhibitors), mixed for 20 minutes by inversion at 4 degrees C. and centrifuged at 10,000×g for 20 minutes. The supernatant is decanted and saved as nuclear extract. Both the nuclear extract and the cytosol are dialyzed for two hours against dialysis buffer (25 mM HEPES, pH 7.8, 50 mM KCl, 10% glycerol, 2 mM dithiothreitol and the above protease inhibitors). Nuclear and cytosol fractions are stored frozen at -80 degrees C. until used for mobility shift assays or determination of estrogen receptor content.
Whole cell extracts of tumor cells are prepared by the method of Reese and Katzenellenbogen, Nuc. Acids Res., 19: 6595-6602 (1991), with some modifications. Cell monolayers are rinsed once with HBSS, then scraped into HBSS and sedimented by centrifugation (5 min., 250×g). After resuspending in 1 mL HBSS, the cells are again sedimented at 250×g for 5 min at 4° C. The cell pellet is resuspended in lysis/extract buffer containing 20 mM Tris, pH 7.5, 10% glycerol (v/v), 0.5M sodium chloride and 0.5% NP-40 (v/v) and incubated on ice for 25 minutes, then the supernatants are dialyzed against 25 mM HEPES, pH 7.8, 10% glycerol (v/v), 0.5 mM dithiothreitol and 50 mM potassium chloride for 2 hours at 4° C. Both the lysis/extraction and the dialysis buffers contain protease inhibitors which included 0.5 mM phenylmethylsulfonylfluoride, 0.05 mg/mL leupeptin, 0.05 mg/mL aprotinin, 0.00-25 mg/mL pepstatin, and 0.005 mg/mL antipain. Dialyzed whole cell extracts are stored in aliquots at -80° C. until used.
The protein concentration for nucleus and cytosol fractions are determined with a BIO-RAD kit, according to the manufacturer's instructions.
Estrogen receptor levels in nuclear and whole cell extracts of tumor cells were quanitated using the ER-EIA monoclonal kit manufactured by Abbott Laboratories (Diagnostic Division) according to the kit instructions.
receptors in nuclear extracts.
.dagger.WCE refers to IC50 value for estrogen receptors in whole cel
A slash dividing two numbers indicates the results of two separate

The target of a further assay is T2, MCF-7 estrogen receptor (Homo sapiens, UniProt P03372).
T2 construct: estrogen receptor extracted from MCF-7 human breast tumor cells; endogenous in cells; host or cells: MCF-7 human breast cancer cells (nuclear extract, cytosol or whole cell extract)
T2 sequence (P03372 1-595): T1 sequence (P03372 1-595)
In words: Competitive binding assay, Relative Binding Affinities on binding of estradiol to MCF-7 estrogen receptor. The method, then:
Briefly, RBAs are determined from competitive binding assays with several concentrations of estradiol (E2) with and without test compound. After 16-18 hours of incubation at 4 degrees C., unbound [^3 H] E2 is separated from ER-bound [^3 H] E2. The IC50 is determined and the RBA is calculated as: […]

The target in assay [1] is T3, estrogen receptor binding to an estrogen response element (Homo sapiens, UniProt P03372).
T3 construct: estrogen receptor extracted from MCF-7 human breast tumor cells; endogenous in cells; host or cells: MCF-7 human breast cancer cells (nuclear extract, cytosol or whole cell extract)
T3 sequence (P03372 1-595): T1 sequence (P03372 1-595)
Briefly: Inhibition of estrogen receptor binding to an estrogen response element in DNA mobility shift assays. It is filed as biochemical, human (nuclear extract of MCF-7 human breast cancer cells). The settings on record: read-out: integrated volume of shifted ERE oligo as percentage of control, given as % inhibition. The method, then:
as §1
Briefly, to each reaction tube was added 0.01 mg nuclear extract, 2 μg poly dIdC, 50 mM NaCl, 1 mM dithiothreitol and 10 mM Tris, pH 7.5 in a total volume of 0.01 ml and the mixture was kept at room temperature for 10 minutes. A ^32 P-labelled estrogen response element [ERE]

The test system of the next assay is estrogen receptor mRNA. In words: Reduction of estrogen receptor mRNA levels in treated MCF-7 human breast tumor cells.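 On Estrogen Receptor mRNA band intensity: Phosphoimager intensity of radioactive mRNA bands.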 It is filed as cell-based. The settings on record: 30 μM, 24 hr. The method, then: (§2) After treatment with 30 μM drug for 24 hr, total RNA is isolated according to the guanidinium isothiocyanate method using an RNA preparation kit from 5 Prime-3 Prime, Inc., following the manufacturer's instructions. The RNA is separated by formaldehyde gel electrophoresis and transferred to a nylon membrane.

Another assay concerns GAPDH mRNA. In words: GAPDH mRNA levels in treated MCF-7 human breast tumor cells (positive control probe).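 Further: Phosphoimager intensity of radioactive mRNA bands.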 It counts as cell-based. Particulars: 30 μM, 24 hr. The method, then:
as §2

Where [2] appears, read: estrogen receptors in nuclear extracts.
The mark [3] stands for this setting: WCE: estrogen receptors in whole cell extracts.

The term IC50 denotes the concentration needed to halve the response being measured. On estrogen receptors (setting [2]), `CCN(CC)C(=O)CCCCCCCNC(=O)Cc1c(C)n(C(=O)c2ccc(Cl)cc2)c2ccc(O)cc12` [MDL 104,631, 8-[[5-Hydroxy-1-(4-chlorobenzoyl)-2-methyl-1H-indol-3-yl]-acetylamino]-octanoic acid diethyl-amide] gave an IC50 of 16 µM.
The same measure, in the same setting: under `CCCCN(C)C(=O)CCCCCCNC(=O)Cc1c(C)n(CCCc2ccccc2)c2ccc(O)cc12` [MDL 104,261, 7-[[5-Hydroxy-1-(3-phenylpropyl)-2-methyl-1H-indol-3-yl]-acetylamino]-heptanoic acid methyl-butyl-amide] stands 23.5 µM; under `CCCCNC(=O)CCCCCCCNC(=O)Cc1c(-c2ccc(O)cc2)n(Cc2ccccc2)c2ccc(O)cc12` [MDL 104,262, 8-[[5-Hydroxy-1-benzyl-2-[(4-hydroxy)phenyl]-1H-indol-3-yl]-acetylamino]-octanoic acid butyl-amide], 25 µM; under `CCCCN(C)C(=O)CCCCCNC(=O)Cc1c(-c2ccc(O)cc2)n(Cc2ccccc2)c2ccc(O)cc12` [MDL 104,982, 6-[[5-Hydroxy-1-benzyl-2-[(4-hydroxy)phenyl]-1H-indol-3-yl]-acetylamino]-hexanoic acid methyl-butyl-amide], 20 µM.
Consider `Cc1c(CC(=O)NCCCCCCC(=O)N(C)c2ccccc2)c2cc(O)ccc2n1C(=O)c1ccccc1` [MDL 103,005, 7-[[5-Hydroxy-1-benzoyl-2-methyl-1H-indol-3-yl]-acetylamino]-heptanoic acid methyl-phenyl-amide], for which the IC50 on estrogen receptors (setting [2]) was 27 µM.
On the same count and under the same terms, under `CCCCN(C)C(=O)CCCCCCCNC(=O)Cc1c(C)n(C(=O)c2ccc(OC)cc2)c2ccc(O)cc12` [MDL 105,517, 8-[[5-Hydroxy-1-(4-methoxybenzoyl)-2-methyl-1H-indol-3-yl]-acetylamino]-octanoic acid methyl-butyl-amide] stands 16 µM.
`CCCCN(C)C(=O)CCCCCCCNC(=O)Cc1cn(Cc2ccccc2)c2ccccc12` [MDL 103,948, 8-[[1-Benzyl-1H-indol-3-yl]-acetylamino]-octanoic acid methyl-butyl-amide] registered an IC50 against estrogen receptors (setting [3]) of 14 µM.
The same measure, in the same setting: the result for `CCCCc1ccc(C(=O)n2c(C)c(CC(=O)NCCCCCCC(=O)N(CC)CC)c3cc(O)ccc32)cc1` [MDL 103,494, 7-[[5-Hydroxy-1-(4-butylbenzoyl)-2-methyl-1H-indol-3-yl]-acetylamino]-heptanoic acid diethyl-amide] reads 28 µM.
For the compound `CCCCN(C)C(=O)CCCCCCCNC(=O)Cc1c(C)n(C(=O)c2ccccc2)c2ccc(O)cc12` [MDL 105,813, 8-[[5-Hydroxy-1-benzoyl-2-methyl-1H-indol-3-yl]-acetylamino]-octanoic acid methyl-butyl-amide], the “inhibition of estradiol binding to MCF-7 ER” value at MCF-7 estrogen receptor (doses of 100 or 200 nM) is “did not significantly inhibit”; at MCF-7 estrogen receptor (typically, at doses of 100 or 200 nM), “less than 10%”. The inhibition at 2 µM in assay [1] (2 μM) came to 7.6%. In addition, the inhibition at 5 µM in assay [1] (5 μM) came out at 60%. Besides, in assay [1] (10 μM), the inhibition at 10 µM was 84%. In assay [1] (20 μM), the inhibition at 20 µM is 33%. The inhibition at 30 µM in assay [1] (30 μM) came out at 30%. In the assay on estrogen receptor mRNA (mean of replicates 1 and 2), the ER/GAPDH mean is 0.63. The ER/GAPDH is recorded as 0.75 with estrogen receptor mRNA (replicate 1) and 0.5 in the assay with estrogen receptor mRNA (replicate 2). Also, the results for the “Estrogen Receptor mRNA band intensity” value in the assay on estrogen receptor mRNA (replicate 1) and with estrogen receptor mRNA (replicate 2) were 5,288 and 2,418, respectively. Also, the activity at 30 µM with estrogen receptor mRNA (Homo sapiens, MCF7, read-out: ER/GAPDH % Control) turned out to be 17%. In addition, the “GAPDH mRNA band intensity” value with GAPDH mRNA (replicate 1) is 6,996; in the assay with GAPDH mRNA (replicate 2), 4,830.
`CCCCN(C)C(=O)CCCCCCNC(=O)Cc1c(-c2ccc(O)cc2)n(Cc2ccccc2)c2ccc(O)cc12` [MDL 103,623, 7-[[5-Hydroxy-1-benzyl-2-[(4-hydroxy)phenyl]-1H-indol-3-yl]-acetylamino]-heptanoic acid methyl butyl-amide]: the IC50 amounted to 16 µM at estrogen receptors (setting [2]) and 17 µM against estrogen receptors (estrogen receptors in nuclear extracts, second of two separate experiments (after the slash)).
At estrogen receptors (setting [2]), `CCCCN(C)C(=O)CCCCCCCNC(=O)Cc1c(-c2ccc(OC(C)=O)cc2)n(Cc2ccccc2)c2ccc(OC(C)=O)cc12` [MDL 104,401, 8-[[5-Acetoxy-1-benzyl-2-[(4-acetoxy)-phenyl]-1H-indol-3-yl]-acetylamino]-octanoic acid methyl-butyl-amide] had an IC50 of 28 µM. Moreover, in assay [1], the inhibition at 2 µM was determined as 120%, the inhibition at 5 µM is 92%, the inhibition at 10 µM worked out at 59% and the inhibition at 20 µM stood at 49%. Also, the inhibition at 30 µM in assay [1] came to 44%.
With `CCCCN(C)C(=O)CCCCCCCNC(=O)Cc1c(-c2ccc(F)cc2)n(Cc2ccccc2)c2ccc(O)cc12` [MDL 103,970, 8-[[5-Hydroxy-1-benzyl-2-(4-fluorophenyl)-1H-indol-3-yl]-acetylamino]-octanoic acid methyl-butyl-amide], the IC50 against estrogen receptors (setting [2]) stood at 16 µM.
Still for that read-out and setting: the result for `CCCCN(C)C(=O)CCCCCNC(=O)Cc1c(C)n(C(=O)c2ccc(Cl)cc2)c2ccc(O)cc12` [MDL 105,643, 6-[[5-Hydroxy-1-(4-chlorobenzoyl)-2-methyl-1H-indol-3-yl]-acetylamino]-hexanoic acid methyl-butyl-amide] reads 19 µM; that for `CCCCN(C)C(=O)CCCCCCCNC(=O)Cc1cn(Cc2ccccc2)c2ccc(F)cc12` [MDL 104,822, 8-[[5-Fluoro-1-benzyl-1H-indol-3-yl]-acetylamino]-octanoic acid methyl-butyl-amide], 12 µM.
